Laboratory results taken from article PMC5071873, “The Effects of Puerarin on Rat Ventricular Myocytes and the Potential Mechanism” (Scientific Reports, 2016).

Assays:
Assay type in all cases: cell-based
[1] = molecular target: T1, IKs (Rattus norvegicus, UniProt Q9Z0N7); assay: Whole-cell recording of IKs on rat ventricular myocytes; conditions: puerarin 100 μM
T1 construct: endogenous in cells; host or cells: isolated adult rat ventricular myocytes
Protocol: The Tyrode’s solution contained (mM): 126 NaCl, 5.4 KCl, 1.8 CaCl2, 1 MgCl2, 0.33 NaH2PO4, 10 HEPES and 10 glucose, pH 7.4 (adjusted with NaOH). The Ca^2+-free Tyrode’s solution was prepared by removing CaCl2 from the Tyrode’s solution. The Kreb’s solution used for cell storage contained (mM): 70 glutamic acid, 30 KCl, 15 taurine, 0.5 MgCl2, 10 KH2PO4, 0.5 EGTA, 10 HEPES, 10 glucose, and 1% albumin, pH 7.4 (adjusted with KOH). The enzyme solution used for the rat cardiomyocyte isolation contained 0.08 g/L collagenase (type II) and 1.0 g/L BSA in Kreb’s solution. For action potential recording on cardiomyocyte, the pipette solution contained (mM): 100 potassium aspartate, 30 KCl, 1 MgCl2, 5 Mg-ATP, 5 EGTA, 5 HEPES, pH 7.3 (adjusted with KOH); the Tyrode’s solution was used as the standard bath solution. For whole-cell recording of IKs on myocytes, the pipette solution contained (mM): 125 potassium aspartate, 20 KCl, 1 MgCl2, 5 Mg-ATP, 10 EGTA, 5 HEPES, pH 7.3 (adjusted with KOH); the bath solution contained (mM): 132 NaCl, 4 KCl, 1.8 CaCl2, 1.2 MgCl2, 10 HEPES, 5 glucose, pH 7.4 (adjusted with NaOH). […]
Cell suspensions were transferred into a chamber on the stage of a Nikon Eclipse Ti inverted microscope (Tokyo, Japan). […] The IK1 was calculated as the difference between the peak inward current and the holding current level. […]

[2] = molecular target: T2, Kir2.1 (Homo sapiens, UniProt P63252); assay: Whole-cell patch clamp of Kir2.1 currents (ramp voltage protocol) in transfected HEK293 cells
T2 construct: expressed in transfected cells; host or cells: HEK293
T2 sequence (P63252 1-427): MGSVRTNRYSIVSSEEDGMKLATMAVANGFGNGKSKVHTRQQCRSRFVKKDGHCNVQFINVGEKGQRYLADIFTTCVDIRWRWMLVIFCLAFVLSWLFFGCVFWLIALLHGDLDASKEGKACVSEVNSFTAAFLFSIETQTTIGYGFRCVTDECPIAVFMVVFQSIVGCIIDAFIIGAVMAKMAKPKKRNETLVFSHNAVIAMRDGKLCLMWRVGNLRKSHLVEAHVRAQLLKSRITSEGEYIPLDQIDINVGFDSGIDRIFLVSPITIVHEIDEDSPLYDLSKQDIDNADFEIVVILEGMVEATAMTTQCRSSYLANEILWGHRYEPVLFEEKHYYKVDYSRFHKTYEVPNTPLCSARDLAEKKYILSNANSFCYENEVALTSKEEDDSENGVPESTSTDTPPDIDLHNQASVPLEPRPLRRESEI
Protocol: The Tyrode’s solution contained (mM): 126 NaCl, 5.4 KCl, 1.8 CaCl2, 1 MgCl2, 0.33 NaH2PO4, 10 HEPES and 10 glucose, pH 7.4 (adjusted with NaOH). The Ca^2+-free Tyrode’s solution was prepared by removing CaCl2 from the Tyrode’s solution. The Kreb’s solution used for cell storage contained (mM): 70 glutamic acid, 30 KCl, 15 taurine, 0.5 MgCl2, 10 KH2PO4, 0.5 EGTA, 10 HEPES, 10 glucose, and 1% albumin, pH 7.4 (adjusted with KOH). The enzyme solution used for the rat cardiomyocyte isolation contained 0.08 g/L collagenase (type II) and 1.0 g/L BSA in Kreb’s solution. For action potential recording on cardiomyocyte, the pipette solution contained (mM): 100 potassium aspartate, 30 KCl, 1 MgCl2, 5 Mg-ATP, 5 EGTA, 5 HEPES, pH 7.3 (adjusted with KOH); the Tyrode’s solution was used as the standard bath solution. For whole-cell recording of IKs on myocytes, the pipette solution contained (mM): 125 potassium aspartate, 20 KCl, 1 MgCl2, 5 Mg-ATP, 10 EGTA, 5 HEPES, pH 7.3 (adjusted with KOH); the bath solution contained (mM): 132 NaCl, 4 KCl, 1.8 CaCl2, 1.2 MgCl2, 10 HEPES, 5 glucose, pH 7.4 (adjusted with NaOH). 3 μM nifedipine and 5 μM E-4031 were used to block the calcium current and IKr, respectively. For whole-cell recording on HEK-293 cells, the pipette solution contained (mM): 140 KCl, 2 MgCl2, 10 HEPES, 0.1 EGTA, 4 K2-ATP, pH 7.3 (adjusted with KOH); the bath solution contained (mM): 120 NaCl, 5 KCl, 1.5 CaCl2, 1 MgCl2, 10 HEPES, 10 glucose, pH 7.4 (adjusted with NaOH). For single-channel recording, the pipette solution (extracellular) contained (mM): 145 KCl, 10 HEPES, 10 glucose, pH 7.4 (adjusted with KOH); the bath solution (intracellular) contained (mM): 145 KCl, 1.2 MgCl2, 10 HEPES, 0.1 EGTA, pH 7.38 (adjusted with KOH).
Cell suspensions were transferred into a chamber on the stage of a Nikon Eclipse Ti inverted microscope (Tokyo, Japan). The whole-cell recordings were performed using isolated single ventricular myocytes. Patch electrodes were pulled from a horizontal microelectrode puller (P-1000, Sutter Instrument Co, USA) and fire polished to final tip resistance of 4.0–8.0 MΩ when filled with internal solutions. Signals were amplified with an Axopatch 200B amplifier (Axon Instruments, USA) and filtered at 1 kHz. The pCLAMP 9.0 software was used to generate current and voltage clamp protocols, acquire data, and analyse the current traces. The whole-cell series resistance was compensated to more than 80%. All of the experiments were performed at room temperature (22 ± 1 °C). The whole-cell IK1 was elicited by a ramp voltage protocol from −140 to + 40 mV in 1 s, or at a 0 mV holding potential to test potentials from −140 to + 40 mV in 10 mV increments. The IK1 was calculated as the difference between the peak inward current and the holding current level. The whole-cell Kv7.1/IKs were elicited from a −30 mV holding potential to test potentials from −80 to + 40 mV in 10 mV increments.
Human Kir2.1 cDNA, Kir2.3 cDNA, Kv7.1 cDNA and KCNE1 cDNA, was cloned in Human Embryonic Kidney 293 cells, respectively. In some cases, Kv7.1 cDNA and KCNE1 cDNA were simultaneously cloned in Human Embryonic Kidney 293 cells.

[3] = test system: intracellular cAMP; assay: Mouse/Rat cAMP assay in rat cardiomyocytes; conditions: puerarin 1 mM
Protocol: cAMP levels were measured in rat cardiomyocytes using a Mouse/Rat cAMP kit (cAMP parameter assay kit, R&D Systems) according to the manufacturer’s instructions. The assay is based on the competitive binding technique. A streptavidin-coated plate is incubated with a biotinylated monoclonal antibody specific for cAMP. Following a wash to remove excess monoclonal antibody, cAMP present in a sample competes with a fixed amount of horseradish peroxidase (HRP)-labeled cAMP for sites on the monoclonal antibody. This is followed by another wash to remove excess conjugate and unbound sample. A substrate solution is added to the wells to determine the bound enzyme activity. The color development is stopped and the absorbance is read at 450 nm. The intensity of the color is inversely proportional to the concentration of cAMP in the sample. The level of cAMP in the sample was determined based on a standard curve and expressed as pmol/mg per each sample. Normalized cAMP was calculated by compared with the control group. In our study, we investigate the effect of puerarin on intracellular cAMP concentration and its effect upon the increase of cAMP induced by isoproterenol, forskolin and 8-Br-cAMP.

## O=c1c(-c2ccc(O)cc2)coc2c([C@@H]3O[C@H](CO)[C@@H](O)[C@H](O)[C@H]3O)c(O)ccc12 [Puerarin, 8-c-glucoside of daidzein]
[1]
  effect on forskolin-activated IKs current in rat cardiac myocytes: antagonized such activation effect
[2]; 10 μM, 1 mM (so in the source)
  effect on Kir2.1 currents at low concentrations: little effect
[2]; HEK293
  saturation dosage, inhibition of Kir2.1: 50 mM
[2]; HEK293, n = 5 each point
  maximal inhibitory effect upon Kir2.1: 53.11 ± 1.84%
[2]; HEK293, non-linear Hill fit, n = 5 each point, read-out: IC50, inhibition of Kir2.1 currents
  IC50: 1270 µM
[2]; non-linear Hill fit
  Hill coefficient, inhibition of Kir2.1: 0.990
[3]; rat cardiac myocytes
  effect upon the increase of cAMP induced by isoproterenol, forskolin: no effect
[3]; rat cardiac myocytes (text: also HEK293 transfected Kv7.1/IKs)
  effect on intracellular cAMP concentration: no effect
